From patent US5955481A, “Pyridine type thiazolidines” (Nissan Chemical Industries, Ltd., priority 1994, dated 1999)

Tests used:
[1] = test system: KK mouse; assay: Measurement of Hypoglycemic Effect, KK mouse; assay type: in vivo; details: for % decrease (percentage of reducing blood glucose): KK mouse, 30 mg/kg, oral, 24 hours after administration
Protocol: (§1) KK mouse and KKAy mouse, NIDDM models (male, 6-7 weeks old) (Nakamura, Proc. Jpn. Acad. 38, 348-352, 1962; Iwatsuka et al. Endocrinol Jpn, 17, 23-35, 1970) were purchased from Nihon Clea. They were allowed free access to high-calories' chow (CMF, Oriental Yeast) and water. Around 40 g-weighted mice were examined.
(§2) Blood (20 μl) collected from the retro-orbital sinus was diluted in 60 units heparin sodium-solution and was centrifuged in a microfuge. The supernatant was assayed. The glucose concentration was determined by glucose oxidase method (Glucose Analyzer II, Beckman).
(§3) All test-compounds suspended in 0.5% carboxy-methyl cellulose (CMC)-saline were orally administered in mice. Before and 24 hours after the administration, blood was collected from the retro-orbital sinus, and a blood glucose value was measured in the above-mentioned manner. The hypoglycemic activity was expressed by the percentage of reducing blood glucose calculated before and 24 hours after the administration.

[2] = test system: KKA^y mouse; assay: Measurement of Hypoglycemic Effect, KKAy mouse; assay type: in vivo; details: oral, 24 hours after administration, read-out: % decrease (percentage of reducing blood glucose)
Protocol: as §1, §2, §3

[3] = test system: bovine serum albumin (BSA); assay: Measurement of Anti-Glycation Effect; assay type: biochemical; details: for % decrease (anti-glycation effect, fluorescence per mg protein, percentage of the control): 5% BSA-0.5M G6P, 37° C., 10 day-incubation; for anti-glycation activities (in words): Test Example 2
Protocol: Because glycated protein is fluorescent, the amount of glycated protein can be determined using fluorescence, according to the previous reports (Doi et al., Proc. Natl. Acad. Sci. U.S.A., 89, 2873-2877, 1992: Mitsuhashi et al., Diabetes, vol. 42, 826-832, 1993). The experimental procedure was modified as follows. Five percent of bovine serum albumin (BSA) containing 0.5M glucose-6-phosphate-2Na (5% BSA-0.5M G6P) was filtration-sterilized (with 0.45 μm-pore size filter) and was incubated at 37° C.; positive control was incubated with 1% dimethyl sulfoxide (DMSO) at 37° C.; blank was incubated at 4° C. All test-compounds dissolved in DMSO (final concentration of DMSO was less than 1%) were added in 5% BSA-0.5M G6P. After 10 day-incubation 5% BSA-0.5M G6P with a compound, positive control and blank were dialyzed against 2L phosphate buffered saline for 24 hours (fractional molecular weight: 12,000-14,000).The dialyzed solution was diluted in water 4 times and was determined the fluorescence (ex. 370 nm-em. 440 nm). The protein concentration of the dialyzed solution (10 μL of which was diluted to 20 times with distilled water) was determined by Lowry-method and the fluorescence was expressed per mg protein. Control (100%) was positive control minus blank. Anti-glycation effect was calculated as the percentage of the control.

[4] = test system: AGE protein on arterial walls; details: rat suffering from diabetes; Science, vol. 232, p. 1629 (1986); cited from earlier work

Row | Compound | % decrease (percentage of reducing blood glucose) [1] [%] | inhibition in vivo at 30 mg/kg [2] [%] | % decrease (anti-glycation effect, fluorescence per mg protein, percentage of the control) ([3]; 100 μg/ml) [%] | further results
1 | Cc1oc(-c2ccccc2)nc1CCC(=O)c1ccc(CC2SC(=O)NC2=O)cc1 (stereo not shown) [CP-86325] | 39.4 | 39.5 | 10.3 | anti-glycation activities (in words) [3]: did not exhibit anti-glycation activities
2 | Cc1c(C)c2c(c(C)c1O)CCC(C)(COc1ccc(CC3SC(=O)NC3=O)cc1)O2 (stereo not shown) [CS-045] | 24.2 | -3 | 10.1 | anti-glycation activities (in words) [3]: did not exhibit anti-glycation activities
3 | Cc1oc(-c2ccccc2)nc1C(=O)COc1ccc(C=C2SC(=O)NC2=O)nc1 [I-1a-1, 5-((5-(2-oxo-2-(2-phenyl-5-methyl-4-oxazolyl)ethoxy)-2-pyridyl)methylidene)thiazolidin-2,4-dione] | 48.9 | 48.6 | 42.3 | 
4 | COCOc1ccc(C=C2SC(=O)NC2=O)nc1 [I-1a-2] |  |  | 24.1 | 
5 | O=C1NC(=O)C(=Cc2ccc(OCc3ccccc3)cn2)S1 [I-1a-3] |  |  | 34.1 | 
6 | Cc1oc(-c2ccc(-c3ccccc3)cc2)nc1C(O)COc1ccc(C=C2SC(=O)NC2=O)nc1 (stereo not shown) [I-1a-43] |  | 47.3 |  | 
7 | Cc1oc(-c2ccccc2)nc1C(=O)COc1ccc(CC2SC(=O)NC2=O)nc1 (stereo not shown) [I-2a-1, 5-((5-(2-oxo-2-(2-phenyl-5-methyl-4-oxazolyl)ethoxy)-2-pyridyl)methyl)thiazolidin-2,4-dione] | 65.1 | 50 |  | 
8 | COCOc1ccc(CC2SC(=O)NC2=O)nc1 (stereo not shown) [I-2a-2] |  | 39.9 |  | 
9 | Cc1cccc(-c2nc(C(=O)COc3ccc(CC4SC(=O)NC4=O)nc3)c(C)o2)c1 (stereo not shown) [I-2a-5] |  | 47.7 |  | 
10 | Cc1oc(-c2ccc(F)cc2)nc1C(O)COc1ccc(CC2SC(=O)NC2=O)nc1 (stereo not shown) [I-2a-30] |  | 37.2 |  | 
11 | Cc1oc(-c2ccc(-c3ccccc3)cc2)nc1C(O)COc1ccc(CC2SC(=O)NC2=O)nc1 (stereo not shown) [I-2a-31] |  | 52.2 |  | 
12 | Cc1ccc(-c2nc(C(O)COc3ccc(CC4SC(=O)NC4=O)nc3)c(C)o2)cc1 (stereo not shown) [I-2a-32] |  | 35.4 |  | 
13 | N=C(N)NN [aminoguanidine] |  |  |  | % decrease (anti-glycation effect, fluorescence per mg protein, percentage of the control) ([3]; 1 mM): 21.4%; % decrease (anti-glycation effect, fluorescence per mg protein, percentage of the control) ([3]; 10 mM): 48.9%; % decrease (anti-glycation effect, fluorescence per mg protein, percentage of the control) ([3]; 100 mM): 80.2%; prevention of formation of AGE protein on arterial walls (in words) [4]: prevents formation of AGE protein on arterial walls
14 | COc1ccc(Cl)cc1C(=O)NCCc1ccc(S(=O)(=O)NC(=O)NC2CCCCC2)cc1 [glibenclamide] | -3.6 | -2.5 |  | hypoglycemic activity (in words) ([1]; Test Example 1, KK and KKAy mouse, 30 mg/kg oral): did not exhibit hypoglycemic activity
